Assay results as given in patent publication US12415794B2 (Edgewise Therapeutics, Inc., priority 2018, dated 2025).

Key:
[1] = biological target: T1, cardiac myofibrils (myosin ATPase); test: Cardiac Myofibril ATPase Assay (counter screen); type: biochemical; conditions: myofibrils 1.0 mg/mL, KCl omitted
T1 construct: frozen myofibril pellets obtained from cardiac tissue; from tissue
Method in brief: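 Myosin ATPase rate followed via NADH disappearance at 340 nm, coupled through pyruvate kinase and lactate dehydrogenase, using cardiac myofibril pellets (final 1.0 mg/mL) without KCl. IC50 values reflect rate reduction compared with vehicle-treated wells.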

[2] = biological target: skeletal myofibrils (myosin ATPase); test: Skeletal Myofibril ATPase Assay; type: biochemical
Method: FIG. 7 depicts the buffer preparation procedures of Buffer A and Buffer B for the skeletal myofibril ATPase assay described in Example 12. Buffers were stored on ice until use.
Example 12: Skeletal Myofibril ATPase Assay
Overview: Myosin ATPase activity is assessed by using a coupled reaction system, in which ADP generated by the myosin ATPase function is coupled to the disappearance of NADH through the pyruvate kinase/lactate dehydrogenase (PK-LDH) system. ATPase activity produces ADP, which is used as a substrate for PK to produce pyruvate and regenerate ATP. The pyruvate is then used as a substrate by LDH to oxidize NADH to NAD+. The rate of the reaction is monitored through the time-dependent disappearance of NADH using absorbance at 340 nm. Inhibition of ATPase activity by the assayed compounds is indicated by a reduced rate of NADH loss, relative to vehicle-treated controls, over the experimental time window. To assess the selectivity of the assayed compounds for skeletal myofibrils, the compounds are counter-screened in cardiac myofibrils.
Materials: The following stock solutions and reagents were used in the Skeletal Myofibril ATPase Assay:
Stock Solutions of pCa buffer. Combine PIPES, CaCl2, and EGTA solutions with 70 mL of water. Adjust pH to 7.0 and bring final volume to 100 mL.
Skeletal Myofibril ATPase Assay Procedure: BSA, ATP, NADH, PEP, and DTT solutions were thawed at room temperature, then transferred to ice. Pellet-frozen myofibrils were transferred with approximately twice the required volume into a sufficiently large tube and capped. Myofibrils were thawed by rolling in a water bath for approximately 15 min at room temperature and cooled on ice. Buffers A and B were prepared by adjusting volumes as necessary for required number of wells and stored on ice. 0.5 μL of the compounds to be assayed were added into wells. 25 μL of Buffer A was dispensed into the wells, followed by 25 μL of Buffer B. The wells were measured for absorbance at 340 nm, using a kinetic protocol in which the wells are read every 1.5-2 min for 45 min. The slope of the data was approximated by subtracting the minimum absorbance value from the maximum value for each well. This was accomplished either in the SoftMax Pro software or in a spreadsheet program such as Excel. Using GraphPad Prism 8.0, the data was normalized by assigning a value of 100% to the 1% DMSO vehicle wells. Typically, a normalized 0% value was simply assigned to a (Max−Min) value of 0. The normalized data was fit to a Four Parameter Logistic sigmoidal equation, constraining the bottom to be 0 or greater. Compounds of Table 1, 2, and 3 were tested and results of the assay appear in Tables 4a-4c. A=IC50 is less than or equal to 10 μM; B=IC50 is greater than 10 μM and less than 100 μM; C=IC50 is greater than 100 μM.

T1 sequence (P12883 whole entry): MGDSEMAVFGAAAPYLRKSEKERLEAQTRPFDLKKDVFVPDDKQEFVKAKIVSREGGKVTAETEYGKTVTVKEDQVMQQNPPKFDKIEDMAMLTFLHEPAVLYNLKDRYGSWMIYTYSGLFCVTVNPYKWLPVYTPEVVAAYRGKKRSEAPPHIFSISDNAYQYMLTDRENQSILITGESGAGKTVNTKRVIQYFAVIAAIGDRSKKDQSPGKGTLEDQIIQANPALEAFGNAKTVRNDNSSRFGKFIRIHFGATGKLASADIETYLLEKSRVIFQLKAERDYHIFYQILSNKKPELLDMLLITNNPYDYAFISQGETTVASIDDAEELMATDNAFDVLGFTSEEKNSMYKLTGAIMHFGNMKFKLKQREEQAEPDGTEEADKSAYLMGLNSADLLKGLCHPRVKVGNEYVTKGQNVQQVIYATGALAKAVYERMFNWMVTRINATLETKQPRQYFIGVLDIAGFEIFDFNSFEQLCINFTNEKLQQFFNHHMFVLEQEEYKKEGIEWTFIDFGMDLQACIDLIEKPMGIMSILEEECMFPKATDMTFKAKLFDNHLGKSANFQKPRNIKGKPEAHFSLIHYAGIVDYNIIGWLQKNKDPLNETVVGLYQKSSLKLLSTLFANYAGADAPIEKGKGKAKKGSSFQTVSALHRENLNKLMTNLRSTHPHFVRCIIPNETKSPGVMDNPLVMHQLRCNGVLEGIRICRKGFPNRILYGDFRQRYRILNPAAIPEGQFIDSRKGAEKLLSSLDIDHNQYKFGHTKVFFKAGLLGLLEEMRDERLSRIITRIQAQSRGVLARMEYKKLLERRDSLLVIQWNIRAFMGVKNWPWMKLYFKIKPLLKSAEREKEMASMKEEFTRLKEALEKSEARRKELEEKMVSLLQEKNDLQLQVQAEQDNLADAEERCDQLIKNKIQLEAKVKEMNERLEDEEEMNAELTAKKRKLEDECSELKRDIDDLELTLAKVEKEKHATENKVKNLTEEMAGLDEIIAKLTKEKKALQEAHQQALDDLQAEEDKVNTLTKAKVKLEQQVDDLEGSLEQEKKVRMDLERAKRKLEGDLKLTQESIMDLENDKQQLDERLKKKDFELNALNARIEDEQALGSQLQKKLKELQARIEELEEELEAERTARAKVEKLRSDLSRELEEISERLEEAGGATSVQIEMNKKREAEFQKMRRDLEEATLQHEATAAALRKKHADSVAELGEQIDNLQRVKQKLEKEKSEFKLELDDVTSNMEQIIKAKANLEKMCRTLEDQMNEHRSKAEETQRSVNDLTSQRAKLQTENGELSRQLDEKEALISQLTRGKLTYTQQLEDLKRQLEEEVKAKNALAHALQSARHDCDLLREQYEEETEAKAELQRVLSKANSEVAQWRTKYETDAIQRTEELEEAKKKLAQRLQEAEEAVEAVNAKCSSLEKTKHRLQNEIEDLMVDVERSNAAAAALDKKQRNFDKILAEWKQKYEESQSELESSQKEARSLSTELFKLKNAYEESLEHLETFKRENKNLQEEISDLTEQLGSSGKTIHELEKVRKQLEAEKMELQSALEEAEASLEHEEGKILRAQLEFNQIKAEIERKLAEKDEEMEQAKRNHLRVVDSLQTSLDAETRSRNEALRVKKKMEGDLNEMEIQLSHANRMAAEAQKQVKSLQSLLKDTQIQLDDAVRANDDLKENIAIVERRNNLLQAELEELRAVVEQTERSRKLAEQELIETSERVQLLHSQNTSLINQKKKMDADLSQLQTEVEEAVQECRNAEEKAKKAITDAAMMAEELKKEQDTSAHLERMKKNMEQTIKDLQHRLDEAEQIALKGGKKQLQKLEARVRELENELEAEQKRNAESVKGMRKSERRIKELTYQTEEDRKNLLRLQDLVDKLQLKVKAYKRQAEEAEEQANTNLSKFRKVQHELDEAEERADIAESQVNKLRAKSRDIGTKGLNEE
T1 sequence (P08590 whole entry partner): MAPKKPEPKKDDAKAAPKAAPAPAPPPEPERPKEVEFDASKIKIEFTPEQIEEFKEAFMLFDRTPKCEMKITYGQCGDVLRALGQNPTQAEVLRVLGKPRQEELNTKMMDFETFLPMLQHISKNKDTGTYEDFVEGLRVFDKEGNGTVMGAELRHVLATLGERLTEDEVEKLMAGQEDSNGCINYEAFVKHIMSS
T1 sequence (P10916 whole entry partner): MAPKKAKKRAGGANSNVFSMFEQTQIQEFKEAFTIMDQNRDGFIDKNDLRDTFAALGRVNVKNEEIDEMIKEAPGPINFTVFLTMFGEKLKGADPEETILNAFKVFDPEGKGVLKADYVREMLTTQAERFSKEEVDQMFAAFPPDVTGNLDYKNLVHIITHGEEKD

| Structure (SMILES) | IC50 ([1]; Table 5A) [µM] | IC50 ([2]; Table 4A) [µM] | IC50 ([1]; Table 5B) [µM] | IC50 ([2]; Table 4B) [µM] |
| --- | --- | --- | --- | --- |
| CCNC(=O)Cn1nc(-c2ccc(NC34CC(CO)(C3)C4)nc2)ccc1=O [Compound I-58, N-ethyl-2-(3-(6-((3-(hydroxymethyl)bicyclo[1.1.1]pentan-1-yl)amino)pyridin-3-yl)-6-oxopyridazin-1(6H)-yl)acetamide] | > 100 | 10 to 100 | – | – |
| CCNC(=O)Cn1nc(-c2cnc(NC34CC(C3)C4)nc2)ccc1=O [Compound I-59, 2-(3-(2-(bicyclo[1.1.1]pentan-1-ylamino)pyrimidin-5-yl)-6-oxopyridazin-1(6H)-yl)-N-ethylacetamide] | > 100 | < 10 | – | – |
| CCNC(=O)Cn1nc(-c2ccc(NC34CC(C)(C3)C4)nc2)ccc1=O [Compound I-60, N-ethyl-2-(3-(6-((3-methylbicyclo[1.1.1]pentan-1-yl)amino)pyridin-3-yl)-6-oxopyridazin-1(6H)-yl)acetamide] | > 100 | < 10 | – | – |
| CCNC(=O)Cn1nc(-c2ccc(N(C)C3CCC3)nc2)ccc1=O [Compound I-61, 2-(3-(6-(cyclobutyl(methyl)amino)pyridin-3-yl)-6-oxopyridazin-1(6H)-yl)-N-ethylacetamide] | 10 to 100 | < 10 | – | – |
| CCNC(=O)Cn1nc(-c2ccc(NC3CCC3)nc2)ccc1=O [Compound I-62, 2-(3-(6-(cyclobutylamino)pyridin-3-yl)-6-oxopyridazin-1(6H)-yl)-N-ethylacetamide] | > 100 | < 10 | – | – |
| CCNC(=O)Cn1nc(-c2ccc(SC)nc2)ccc1=O [Compound I-63, N-ethyl-2-(3-(6-(methylthio)pyridin-3-yl)-6-oxopyridazin-1(6H)-yl)acetamide] | > 100 | < 10 | – | – |
| CCNC(=O)Cn1nc(-c2ccc(N(C)C34CC(C3)C4)nc2)ccc1=O [Compound I-64, 2-(3-(6-(bicyclo[1.1.1]pentan-1-yl(methyl)amino)pyridin-3-yl)-6-oxopyridazin-1(6H)-yl)-N-ethylacetamide] | 10 to 100 | < 10 | – | – |
| CCNC(=O)Cn1nc(-c2ccc(OC(F)F)[n+]([O-])c2)ccc1=O [Compound I-65, 2-(difluoromethoxy)-5-(1-(2-(ethylamino)-2-oxoethyl)-6-oxo-1,6-dihydropyridazin-3-yl)pyridine 1-oxide] | > 100 | > 100 | – | – |
| CC[C@@H](C)NC(=O)Cn1nc(-c2ccc(OC(F)F)nc2)ccc1=O [Compound I-66, (R)-N-(sec-butyl)-2-(3-(6-(difluoromethoxy)pyridin-3-yl)-6-oxopyridazin-1(6H)-yl)acetamide] | > 100 | < 10 | – | – |
| O=C(Cn1nc(-c2ccc(OC(F)F)nc2)ccc1=O)NC1(c2ccccc2)CCC1 [Compound I-68, 2-(3-(6-(difluoromethoxy)pyridin-3-yl)-6-oxopyridazin-1(6H)-yl)-N-(1-phenylcyclobutyl)acetamide] | > 100 | < 10 | – | – |
| O=C(Cn1nc(-c2ccc(OC(F)F)nc2)ccc1=O)NCc1ccccc1Cl [Compound I-69, N-(2-chlorobenzyl)-2-(3-(6-(difluoromethoxy)pyridin-3-yl)-6-oxopyridazin-1(6H)-yl)acetamide] | > 100 | < 10 | – | – |
| O=C(Cn1nc(-c2ccc(OC(F)F)nc2)ccc1=O)NCc1ccc(Cl)cc1 [Compound I-70, N-(4-chlorobenzyl)-2-(3-(6-(difluoromethoxy)pyridin-3-yl)-6-oxopyridazin-1(6H)-yl)acetamide] | > 100 | < 10 | – | – |
| O=C(Cn1nc(-c2cnc(OCC(F)(F)F)nc2)ccc1=O)NC1CCC1 [Compound I-71, N-cyclobutyl-2-(6-oxo-3-(2-(2,2,2-trifluoroethoxy)pyrimidin-5-yl)pyridazin-1(6H)-yl)acetamide] | > 100 | < 10 | – | – |
| O=C(Cn1nc(-c2cnc(OCCOC(F)(F)F)nc2)ccc1=O)NC1CCC1 [Compound I-72, N-cyclobutyl-2-(6-oxo-3-(2-(2-(trifluoromethoxy)ethoxy)pyrimidin-5-yl)pyridazin-1(6H)-yl)acetamide] | > 100 | < 10 | – | – |
| CCCOc1ncc(-c2ccc(=O)n(CC(=O)NC3CCC3)n2)cn1 [Compound I-73, N-cyclobutyl-2-(6-oxo-3-(2-propoxypyrimidin-5-yl)pyridazin-1(6H)-yl)acetamide] | > 100 | < 10 | – | – |
| CCNC(=O)Cn1nc(-c2ccc(NC3CC(F)(F)C3)nc2)ccc1=O [Compound I-74, 2-(3-(6-((3,3-difluorocyclobutyl)amino)pyridin-3-yl)-6-oxopyridazin-1(6H)-yl)-N-ethylacetamide] | > 100 | 10 to 100 | – | – |
| CCNC(=O)Cn1nc(-c2ccc(OC3CC(F)(F)C3)nc2)ccc1=O [Compound I-75, 2-(3-(6-(3,3-difluorocyclobutoxy)pyridin-3-yl)-6-oxopyridazin-1(6H)-yl)-N-ethylacetamide] | > 100 | 10 to 100 | – | – |
| O=C(Cn1nc(-c2ccc(OC(F)F)nc2)ccc1=O)NCc1cccc(Cl)c1 [Compound I-76, N-(3-chlorobenzyl)-2-(3-(6-(difluoromethoxy)pyridin-3-yl)-6-oxopyridazin-1(6H)-yl)acetamide] | > 100 | 10 to 100 | – | – |
| CCNC(=O)Cn1nc(-c2cnc(OCC3CC(F)(F)C3)nc2)ccc1=O [Compound I-77, 2-(3-(2-((3,3-difluorocyclobutyl)methoxy)pyrimidin-5-yl)-6-oxopyridazin-1(6H)-yl)-N-ethylacetamide] | > 100 | 10 to 100 | – | – |
| CCNC(=O)Cn1nc(-c2cnc(Oc3ccc(Cl)cc3)nc2)ccc1=O [Compound I-78, 2-(3-(2-(4-chlorophenoxy)pyrimidin-5-yl)-6-oxopyridazin-1(6H)-yl)-N-ethylacetamide] | > 100 | 10 to 100 | – | – |
| CCNC(=O)Cn1nc(-c2ccc(OC(C)(F)F)cc2)ccc1=O [II-1, 2-(3-(4-(1,1-difluoroethoxy)phenyl)-6-oxopyridazin-1(6H)-yl)-N-ethylacetamide] | – | – | 10 to 100 | < 10 |
| CCNC(=O)Cn1nc(-c2ccc(NC(C)=O)cc2)ccc1=O [II-2, 2-(3-(4-acetamidophenyl)-6-oxopyridazin-1(6H)-yl)-N-ethylacetamide] | – | – | > 100 | < 10 |
| O=C(Cn1nc(-c2ccc(OC(F)F)cc2)ccc1=O)NCc1ccccc1Cl [II-3, N-(2-chlorobenzyl)-2-(3-(4-(difluoromethoxy)phenyl)-6-oxopyridazin-1(6H)-yl)acetamide] | – | – | > 100 | < 10 |
| CC(C)NC(=O)Cn1nc(-c2ccc(OC(F)(F)F)cc2)ccc1=O [II-4] | – | – | > 100 | < 10 |
| CCNC(=O)Cn1nc(-c2ccc(OC(F)(F)F)cc2)ccc1=O [II-5, N-ethyl-2-(6-oxo-3-(4-(trifluoromethoxy)phenyl)pyridazin-1(6H)-yl)acetamide] | – | – | > 100 | < 10 |
| CCNC(=O)Cn1nc(-c2ccc(OCC(F)(F)F)cc2)ccc1=O [II-6, N-ethyl-2-(6-oxo-3-(4-(2,2,2-trifluoroethoxy)phenyl)pyridazin-1(6H)-yl)acetamide] | – | – | > 100 | < 10 |
| CCNC(=O)Cn1nc(-c2ccc(OCC(F)F)cc2)ccc1=O [II-7, 2-(3-(4-(2,2-difluoroethoxy)phenyl)-6-oxopyridazin-1(6H)-yl)-N-ethylacetamide] | – | – | 10 to 100 | < 10 |
| O=C(Cn1nc(-c2ccc(OC(F)F)cc2)ccc1=O)NC1CCC1 [II-9, N-cyclobutyl-2-(3-(4-(difluoromethoxy)phenyl)-6-oxopyridazin-1(6H)-yl)acetamide] | – | – | > 100 | < 10 |
| CCNC(=O)Cn1nc(-c2ccc(OC(F)F)cc2)ccc1=O [II-10, 2-(3-(4-(difluoromethoxy)phenyl)-6-oxopyridazin-1(6H)-yl)-N-ethylacetamide] | – | – | > 100 | < 10 |
| O=C(Cn1nc(-c2ccc(OC(F)F)cc2)ccc1=O)NCC(F)(F)F [II-11, 2-(3-(4-(difluoromethoxy)phenyl)-6-oxopyridazin-1(6H)-yl)-N-(2,2,2-trifluoroethyl) acetamide] | – | – | > 100 | 10 to 100 |
